Drawing on DBAASP, this text covers MIC for 11 compounds.

In brackets after ≈: the same amount, converted by molar mass.

Some test systems named below: Bacillus subtilis; Staphylococcus aureus; Candida albicans; Escherichia coli.
Assay in all cases: ≥ marks a high value that may be exact or a test limit, other limits are often not marked, values filed in µg/mL are converted to µM
Assay [1] deals with Pseudomonas aeruginosa ATCC 9027.
Assay [2] relates to Staphylococcus aureus ATCC 6538.
The test system of assay [3] is Staphylococcus aureus ATCC 25923.
In assay [4] the test system is Pseudomonas aeruginosa ATCC 27853.
For assay [5], the system named is Staphylococcus aureus ATCC 33591.
Assay [6] deals with Escherichia coli ATCC 25922.
In assay [7] the test system is Bacillus subtilis ATCC 6633.
Assay [8] has as its system Candida albicans ATCC 10231.
Assay [9] deals with Escherichia coli DH5alpha.

By MIC is commonly meant the smallest concentration in the dilution series that meets the test's criterion for growth inhibition. As to `CC[C@H](C)[C@@H]1NC(=O)[C@H](CO)NC(=O)[C@H](CCCCN)NC(=O)[C@H]([C@@H](C)O)NC(=O)[C@H](Cc2c[nH]c3ccccc23)NC(=O)[C@@H](NC(=O)CNC(=O)[C@H](CCCCN)NC(=O)[C@H](CC(C)C)NC(=O)[C@H](C)NC(=O)[C@H](C)N)CSSC[C@@H](C(=O)N[C@@H](Cc2ccccc2)C(=O)NCC(=O)N[C@@H](CCCCN)C(=O)N[C@@H](CCCN=C(N)N)C(=O)O)NC(=O)[C@@H]2CCCN2C(=O)[C@H](CCCCN)NC(=O)[C@@H]2CCCN2C(=O)[C@@H]2CCCN2C1=O` [AALKGCWTKSIPPKPCFGKR], the minimal inhibitory concentration (MIC) against Bacillus subtilis was 0.845 µM (≈ 1.85 µg/mL); against Staphylococcus aureus it was 2.66 µM (≈ 5.82 µg/mL); against Candida albicans, 1.1 µM (≈ 2.4 µg/mL); with Escherichia coli, 1.47 µM (≈ 3.21 µg/mL).

As for `CC(C)C[C@H](NC(=O)[C@H](C)NC(=O)[C@H](C)NC(=O)[C@H](CCCCN)NC(=O)[C@H](C)NC(=O)[C@H](CC(C)C)NC(=O)[C@H](CCCCN)NC(=O)[C@H](CCCCN)NC(=O)[C@H](C)NC(=O)[C@H](CC(C)C)NC(=O)[C@H](CCCCN)NC(=O)[C@H](CCCCN)NC(=O)[C@H](C)NC(=O)[C@@H](N)Cc1ccccc1)C(N)=O` [FAKKLAKKLAKAAL], the MIC in [1] was determined as 66.6 µM (≈ 99.9 µg/mL); in [2] it was 6.66 µM (≈ 9.99 µg/mL).

For `CC(C)C[C@H](NC(=O)[C@H](CCCCN)NC(=O)[C@H](CCCCN)NC(=O)[C@H](C)NC(=O)[C@H](CC(C)C)NC(=O)[C@H](CCCCN)NC(=O)[C@H](CCCCN)NC(=O)[C@H](CC(C)C)NC(=O)[C@H](CCCCN)NC(=O)[C@H](CCCCN)NC(=O)[C@H](C)NC(=O)[C@@H](N)Cc1ccccc1)C(N)=O` [FAKKLKKLAKKL], the minimum inhibitory concentration (MIC) in [1] came out at 141 µM (≈ 200 µg/mL); in [2], 70.6 µM (≈ 99.9 µg/mL).

Regarding `CC[C@H](C)[C@H](NC(=O)CNC(=O)[C@H](CO)NC(=O)[C@H](CC(C)C)NC(=O)[C@H](CC(C)C)NC(=O)CN)C(=O)N[C@@H](CC(C)C)C(=O)NCC(=O)N[C@@H](C)C(=O)NCC(=O)N[C@@H](CCCCN)C(=O)N[C@@H](Cc1cnc[nH]1)C(=O)N[C@H](C(=O)N[C@H](C(=O)N[C@@H](CS)C(=O)NCC(=O)N[C@@H](CC(C)C)C(=O)N[C@@H](CO)C(=O)NCC(=O)N[C@@H](CC(C)C)C(=O)N[C@@H](CCCN=C(N)N)C(=O)O)C(C)C)[C@@H](C)CC` [GLLSGILGAGKHIVCGLSGLR], the MIC stood at 9.28 µM (≈ 18.8 µg/mL) in the assay with Bacillus subtilis, 4.64 µM (≈ 9.37 µg/mL) against Staphylococcus aureus, 0.544 µM (≈ 1.1 µg/mL) against Candida albicans and 2.32 µM (≈ 4.68 µg/mL) against Escherichia coli.

`C[C@H](NC(=O)[C@H](CCCN=C(N)N)NC(=O)[C@H](CCCN=C(N)N)NC(=O)[C@@H]1CCCN1C(=O)CNC(=O)[C@H](CCCN=C(N)N)NC(=O)[C@H](CCCN=C(N)N)NC(=O)CN)C(=O)N[C@@H](CC(N)=O)C(=O)N[C@@H](CCC(N)=O)C(=O)N[C@@H](CC(N)=O)C(=O)NCC(=O)N[C@H](C(=O)N[C@@H](CCCN=C(N)N)C(=O)N[C@@H](CCCN=C(N)N)C(=O)N[C@@H](CCCN=C(N)N)C(=O)N[C@@H](CCCN=C(N)N)C(=O)N[C@@H](CCCN=C(N)N)C(=O)N[C@@H](CCCN=C(N)N)C(=O)N[C@H](C(N)=O)[C@@H](C)O)[C@@H](C)O` [GRRGPRRANQNGTRRRRRRT]: the minimum inhibitory concentration (MIC) in assay [3] was 100 µM (≈ 248 µg/mL); in assay [4], 25 µM (≈ 61.9 µg/mL); in assay [5] it was no less than 100 µM; in [6], 25 µM (≈ 61.9 µg/mL).

Turning to `CC(C)C[C@H](NC(=O)[C@H](CCCCN)NC(=O)[C@H](CCCCN)NC(=O)[C@H](C)NC(=O)[C@H](CC(C)C)NC(=O)[C@H](CCCCN)NC(=O)[C@H](CCCCN)NC(=O)[C@H](CC(C)C)NC(=O)[C@H](CCCCN)NC(=O)[C@H](CCCCN)NC(=O)[C@H](C)NC(=O)[C@H](CC(C)C)NC(=O)[C@H](CCCCN)NC(=O)[C@H](CCCCN)NC(=O)[C@H](C)NC(=O)[C@H](Cc1ccccc1)NC(=O)[C@H](CCCCN)NC(=O)[C@H](CCCCN)NC(=O)[C@H](Cc1ccccc1)NC(=O)[C@H](CC(C)C)NC(=O)[C@H](CCCCN)NC(=O)[C@@H](NC(=O)[C@@H](N)CCCCN)[C@@H](C)O)C(=O)O` [KTKLFKKFAKKLAKKLKKLAKKL], the values for the MIC in assay [1] and in assay [2] were 36.6 µM (≈ 100 µg/mL) and 3.66 µM (≈ 10 µg/mL), respectively.

As for `CC[C@H](C)[C@H](NC(=O)[C@@H](N)CCCN=C(N)N)C(=O)N[C@@H](Cc1c[nH]c2ccccc12)C(=O)N[C@@H](Cc1ccccc1)C(=O)N[C@@H](CCC(N)=O)C(=O)N[C@@H](CC(N)=O)C(=O)N[C@@H](CCCN=C(N)N)C(=O)N[C@@H](CCCN=C(N)N)C(=O)N[C@@H](CCSC)C(=O)N[C@@H](CCCN=C(N)N)C(=O)N[C@@H](Cc1c[nH]c2ccccc12)C(=O)N[C@@H](CCCN=C(N)N)C(=O)N[C@@H](CCCN=C(N)N)C(N)=O` [RIWFQNRRMRWRR], the minimum inhibitory concentration (MIC) in assay [5] was no less than 32 µM; in assay [6], 32 µM (≈ 62.7 µg/mL).

Consider `CC[C@H](C)[C@H](NC(=O)[C@H](CCC(N)=O)NC(=O)[C@H](CC(C)C)NC(=O)[C@H](CCC(N)=O)NC(=O)[C@@H](NC(=O)[C@H](CCCCN)NC(=O)[C@H](Cc1ccccc1)NC(=O)[C@H](Cc1c[nH]c2ccccc12)NC(=O)[C@@H](N)CCCN=C(N)N)[C@@H](C)CC)C(=O)N[C@@H](CCCN=C(N)N)C(=O)N[C@@H](CCCN=C(N)N)C(=O)N[C@@H](Cc1c[nH]c2ccccc12)C(=O)N[C@@H](CCCCN)C(=O)N[C@@H](CC(N)=O)C(=O)N[C@@H](CCCCN)C(=O)N[C@@H](CCCCN)C(N)=O` [RWFKIQLQIRRWKNKK], for which the minimal inhibitory concentration (MIC) came to 16 µM (≈ 35.6 µg/mL) in assay [5] and 32 µM (≈ 71.3 µg/mL) in assay [6].

With `NCCCC[C@H](NC(=O)[C@H](CCCCN)NC(=O)[C@H](Cc1c[nH]c2ccccc12)NC(=O)[C@H](CCCCN)NC(=O)[C@H](Cc1ccccc1)NC(=O)[C@H](CCCN=C(N)N)NC(=O)[C@H](Cc1c[nH]c2ccccc12)NC(=O)[C@@H](N)CCCN=C(N)N)C(=O)O` [RWRFKWKK], the minimal inhibitory concentration (MIC) in assay [7] is no less than 81 µM; in assay [3], greater than 81 µM; in assay [8], greater than 81 µM; in assay [6], greater than 81 µM.

Turning to `CC[C@H](C)[C@H](NC(=O)[C@H](CCCCN)NC(=O)[C@H](CS)NC(=O)[C@H](C)NC(=O)[C@@H](NC(=O)[C@H](Cc1ccccc1)NC(=O)CNC(=O)[C@H](CC(C)C)NC(=O)CNC(=O)[C@@H](NC(=O)[C@H](CCCCN)NC(=O)CNC(=O)[C@H](CC(C)C)NC(=O)[C@H](CC(N)=O)NC(=O)[C@H](CCCCN)NC(=O)[C@H](CC(C)C)NC(=O)[C@@H](NC(=O)CNC(=O)[C@H](CC(C)C)NC(=O)[C@H](CCSC)NC(=O)[C@@H](N)CO)C(C)C)C(C)C)C(C)C)C(=O)N[C@@H](CC(N)=O)C(=O)N[C@@H](CCCCN)C(=O)N[C@@H](CCC(N)=O)C(=O)N[C@@H](CS)C(=O)O` [SMLGVLKNLGKVGLGFVACKINKQC], the minimum inhibitory concentration (MIC) is greater than 200 µM against Staphylococcus aureus, 200 µM (≈ 524 µg/mL) against Candida albicans and 40 µM (≈ 105 µg/mL) against Escherichia coli.

Take `CC[C@H](C)[C@H](NC(=O)[C@H](Cc1ccccc1)NC(=O)[C@@H](NC(=O)[C@H](Cc1ccccc1)NC(=O)[C@H](CCCN=C(N)N)NC(=O)[C@H](CCCCN)NC(=O)[C@H](CCCN=C(N)N)NC(=O)[C@H](CCCCN)NC(=O)[C@H](Cc1c[nH]c2ccccc12)NC(=O)[C@H](CC(C)C)NC(=O)[C@@H](NC(=O)[C@@H](N)Cc1ccc(O)cc1)C(C)C)[C@@H](C)CC)C(=O)O` [YVLWKRKRFIFI]: the MIC against Bacillus subtilis is 20 µM (≈ 33.4 µg/mL); in assay [9] it was 10 µM (≈ 16.7 µg/mL); in assay [3] it was 10 µM (≈ 16.7 µg/mL); in assay [4], 30 µM (≈ 50.1 µg/mL).
